This is an account of results in US20240158393A1, “PYRIDONE COMPOUNDS AND METHODS OF USE” (Exelixis, Inc., priority 2021, published 2024).

Assay type in all cases: biochemical
One test concerns the target T1, Human Axl (Homo sapiens, UniProt P30530).
T1 construct: Human AXL (residues 464-885)
T1 sequence (P30530 1-894 Q764R): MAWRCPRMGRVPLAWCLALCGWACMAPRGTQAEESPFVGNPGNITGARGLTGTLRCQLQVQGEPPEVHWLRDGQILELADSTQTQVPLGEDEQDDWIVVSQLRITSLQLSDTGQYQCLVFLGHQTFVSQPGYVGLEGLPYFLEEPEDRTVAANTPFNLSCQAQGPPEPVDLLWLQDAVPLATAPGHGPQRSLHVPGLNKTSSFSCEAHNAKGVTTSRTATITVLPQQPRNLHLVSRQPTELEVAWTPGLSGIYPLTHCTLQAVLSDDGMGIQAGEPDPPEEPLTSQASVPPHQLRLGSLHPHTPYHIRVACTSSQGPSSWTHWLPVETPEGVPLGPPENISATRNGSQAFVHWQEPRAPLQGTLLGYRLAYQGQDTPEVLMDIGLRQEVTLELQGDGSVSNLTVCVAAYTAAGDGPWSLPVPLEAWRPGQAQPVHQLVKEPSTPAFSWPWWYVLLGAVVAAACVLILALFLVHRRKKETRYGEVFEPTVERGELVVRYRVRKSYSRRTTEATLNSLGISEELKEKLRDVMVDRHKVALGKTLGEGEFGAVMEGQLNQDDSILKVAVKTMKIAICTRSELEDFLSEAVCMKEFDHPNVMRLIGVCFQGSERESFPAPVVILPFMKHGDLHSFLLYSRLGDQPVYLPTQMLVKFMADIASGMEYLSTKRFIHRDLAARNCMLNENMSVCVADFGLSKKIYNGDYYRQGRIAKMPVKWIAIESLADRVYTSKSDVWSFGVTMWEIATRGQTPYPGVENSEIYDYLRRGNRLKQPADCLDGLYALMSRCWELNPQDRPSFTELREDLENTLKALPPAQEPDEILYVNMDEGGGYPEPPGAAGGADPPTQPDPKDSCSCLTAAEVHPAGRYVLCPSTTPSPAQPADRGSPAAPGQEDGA
Description: Human AXL kinase assay (33P radiometric / HTRF KinEase). To be noted: protocols of Examples A-1 and/or A-2. The procedure:
(§1) Kinase activity and compound inhibition were investigated using the ^33P-Phosphoryl transfer radiometric kinase assay, performed using the KinaseProfiler™ service of Eurofins Pharma Discovery Services UK Limited. Dose-response experiments were performed using nine compound concentrations in a 96-well microtiter plate. For each assay, all compounds were prepared to a 50× final assay concentration (50 μM) in 100% DMSO, then diluted in a half-log series, with the final top concentration at 1 μM. This working stock of the compound was added to the assay well as the first component in the reaction, followed by the remaining components as detailed in the following assay protocols below. The positive control wells (100% kinase activity) contain all components of the reaction including 2% DMSO (control for solvent effects), except the compound of interest. Blank wells contain all components of the reaction, with the reference inhibitor, staurosporine. This reference compound was used to abolish kinase activity and generated the 0% kinase activity base-line. IC50 values were calculated by nonlinear regression analysis using the sigmoidal dose-response (variable slope) curve fit on XLFit version 5.3 (ID Business Solutions).
(§2) Kinase activity and compound inhibition were also investigated using the HTRF® KinEase assay (Cisbio Cat #62TKOPEB) per manufacturer's instructions. In short, compounds were delivered in 300 nL volumes at 10 different concentrations in DMSO (3% final) to empty 384-well assay plates (Corning cat #3824). A mixture of enzyme, 1 μM biotinylated peptide substrate, and buffer in 10 μL volume was added. The assay was started upon the addition of ATP (at Km). The 10 μL reaction was incubated at room temperature. The reaction was stopped upon the addition of detection buffer containing streptavidin-XL665 (5 μL) and TK antibody-Eu3+(5 μL). After a 60 min incubation at room temperature, the fluorescence at 665 nm and 620 nm was read on an Envision microplate reader (Perkin Elmer).
(§3) Kinase activity normalized to DMSO (100% activity) and reference compound at 1 μM and (0% activity) was calculated using the fluorescence ratio […]. IC50 values were calculated by nonlinear regression analysis using a 4-parameter logistic curve fit in ActivityBase XE (IDBS).
(§4) Example A-1: Human Axl (residues H473-A894 with Q764R, 161 nM) was incubated with 8 mM MOPS pH 7.0, 0.2 mM EDTA, 250 μM KKSRGDYMTMQIG (SEQ ID NO:1), 10 mM magnesium acetate and 10 μM [γ-^33P-ATP]. The reaction was initiated by the addition of the Mg/ATP mix. After incubation for 40 minutes at room temperature, the reaction was stopped by the addition of phosphoric acid to a concentration of 0.5%. A reaction aliquot of 10 μL was then spotted onto a P30 filtermat and washed four times for 4 minutes in 0.425% phosphoric acid and once in methanol prior to drying and scintillation counting. Incorporated ^33P was measured using the Wallac Microbeta scintillation counter (Perkin Elmer).
Example A-2: Human AXL (residues 464-885; CarnaBio, 1 ng/well) was also incubated with enzymatic buffer (Cisbio) supplemented with 5 mM MgCl2, 1 mM DTT, and Supplemental Enzymatic Buffer (SEB; Cisbio). The mixture was added to the pre-plated compounds. The reaction was initiated upon addition of ATP at Km (1.0 μM). The reaction was incubated at room temperature for 50 min and stopped upon the addition of SA-XL665 and TK-antibody both diluted in EDTA-containing kinase detection buffer (Cisbio). The kinase activity was calculated as stated above and the IC50 values were reported.
(TR-FRET usually uses a lanthanide donor and a delayed reading to cut background.)

In a further test the target is T2, Human Mer (Homo sapiens, UniProt Q12866).
T2 construct: Human Mer (residues R557-E882 with H628Q and R794A, 0.7 nM); purchased Eurofins Pharma Discovery Services UK Limited (KinaseProfiler service)
T2 sequence (Q12866 557-882 limits assumed): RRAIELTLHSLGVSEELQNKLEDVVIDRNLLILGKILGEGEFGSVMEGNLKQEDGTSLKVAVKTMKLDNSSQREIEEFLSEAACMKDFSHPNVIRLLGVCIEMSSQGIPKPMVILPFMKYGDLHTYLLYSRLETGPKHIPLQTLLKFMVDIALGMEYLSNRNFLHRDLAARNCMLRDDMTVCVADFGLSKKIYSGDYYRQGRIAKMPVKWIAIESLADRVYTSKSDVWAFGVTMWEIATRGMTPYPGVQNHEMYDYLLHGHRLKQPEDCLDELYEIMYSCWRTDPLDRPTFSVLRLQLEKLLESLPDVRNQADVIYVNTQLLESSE
Description: Human Mer kinase assay (33P radiometric / HTRF KinEase). As to conditions: protocols of Examples C-1 and/or C-2. The procedure:
as §1, §2, §3
Example C-1: Human Mer (residues R557-E882 with H628Q and R794A, 0.7 nM) was incubated with 8 mM MOPS pH 7.0, 0.2 mM EDTA, 30 mM NaCl, 250 μM GGMEDIYFEFMGGKKK (SEQ ID NO: 2), 10 mM magnesium acetate, and 10 μM [γ-^33P-ATP]. The reaction was initiated by the addition of the Mg/ATP mix. After incubation for 40 minutes at room temperature, the reaction was stopped by the addition of phosphoric acid to a concentration of 0.5%. A reaction aliquot of 10 μL was then spotted onto a P30 filtermat and washed four times for 4 minutes in 0.425% phosphoric acid and once in methanol prior to drying and scintillation counting. Incorporated ^33P was measured using the Wallac Microbeta scintillation counter (Perkin Elmer).
Example C-2: Human MER (residues 528-999; CarnaBio, 1 ng/well) was also incubated with enzymatic buffer (Cisbio) supplemented with 5 mM MgCl2 and 1 mM DTT. The mixture was added to the pre-plated compounds. The reaction was initiated upon addition of ATP at Km (40 μM). The reaction was incubated at room temperature for 60 min and stopped upon the addition of SA-XL665 and TK-antibody both diluted in EDTA-containing kinase detection buffer (Cisbio). The kinase activity was calculated as stated above and the IC50 values were reported.

Another test deals with T3, Human KDR (Homo sapiens, UniProt P35968).
T3 construct: Human KDR (residues K790-V1356, 55 nM); purchased Eurofins Pharma Discovery Services UK Limited (KinaseProfiler, B-1) and/or CarnaBio (B-2)
The test can be described thus: Human KDR kinase assay (33P radiometric / HTRF KinEase). As to conditions: protocols of Examples B-1 and/or B-2. The procedure:
as §1, §2, §3
as §4, with “B-1:” for “A-1:”, “KDR” for “Axl”, “K790-V1356, 55” for “H473-A894 with Q764R, 161”, “0.33 mg/mL myelin basic protein,” for “250 μM KKSRGDYMTMQIG (SEQ ID NO:1),”, “acetate,” for “acetate”
Example B-2: Human KDR (residues 790-1356; CarnaBio, 0.1 ng/well) was also incubated with enzymatic buffer (Cisbio) supplemented with 5 mM MgCl2, 1 mM MnCl2, and 1 mM DTT. The mixture was added to the pre-plated compounds. The reaction was initiated upon addition of ATP at Km (4.0 μM). The reaction was incubated at room temperature for 40 min and stopped upon the addition of SA-XL665 and TK-antibody both diluted in EDTA-containing kinase detection buffer (Cisbio). The kinase activity was calculated as stated above and the IC50 values were reported.

The next test concerns the target T4, Human Met (Homo sapiens, UniProt P08581).
T4 construct: Human MET (residues 956-1390)
Description: Human Met kinase assay (33P radiometric / HTRF KinEase). To be noted: protocols of Examples D-1 and/or D-2; read-out: c-Met IC50. The procedure: as §1, §2, §3
Example D-1: Human Met (residues R974-S1390 with A1209G and V1290L, 3.4 nM) was incubated with 8 mM MOPS pH 7.0, 0.2 mM EDTA, 250 μM KKKGQEEEYVFIE (SEQ ID NO:3), 1 mM sodium orthovanadate, 5 mM […], 10 mM magnesium acetate, and 10 μM [γ-^33P-ATP]. The reaction was initiated by the addition of the Mg/ATP mix. After incubation for 40 minutes at room temperature, the reaction was stopped by the addition of phosphoric acid to a concentration of 0.5%. A reaction aliquot of 10 μL was then spotted onto a P30 filtermat and washed four times for 4 minutes in 0.425% phosphoric acid and once in methanol prior to drying and scintillation counting. Incorporated ^33P was measured using the Wallac Microbeta scintillation counter (Perkin Elmer).
Example D-2: Human MET (residues 956-1390; CarnaBio, 0.1 ng/well) was also incubated with enzymatic buffer (Cisbio) supplemented with 5 mM MgCl2, 1 mM DTT and 1 mM MnCl2. The mixture was added to the pre-plated compounds. The reaction was initiated upon addition of ATP at Km (3.0 μM). The reaction was incubated at room temperature for 40 min and stopped upon the addition of SA-XL665 and TK-antibody both diluted in EDTA-containing kinase detection buffer (Cisbio). The kinase activity was calculated as stated above and the IC50 values were reported.

T4 sequence (P08581 974-1390 limits assumed): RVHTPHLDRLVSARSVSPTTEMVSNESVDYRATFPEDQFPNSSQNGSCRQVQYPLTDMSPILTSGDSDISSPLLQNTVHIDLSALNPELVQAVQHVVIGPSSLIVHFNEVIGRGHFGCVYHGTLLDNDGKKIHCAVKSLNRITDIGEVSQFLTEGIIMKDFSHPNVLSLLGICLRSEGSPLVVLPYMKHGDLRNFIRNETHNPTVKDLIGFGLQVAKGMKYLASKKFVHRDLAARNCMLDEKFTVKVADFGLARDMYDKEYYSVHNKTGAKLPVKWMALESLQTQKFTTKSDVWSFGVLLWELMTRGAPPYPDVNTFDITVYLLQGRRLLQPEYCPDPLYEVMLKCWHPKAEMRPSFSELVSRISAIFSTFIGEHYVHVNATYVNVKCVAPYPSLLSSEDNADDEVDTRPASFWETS
T3 sequence (P35968 790-1356): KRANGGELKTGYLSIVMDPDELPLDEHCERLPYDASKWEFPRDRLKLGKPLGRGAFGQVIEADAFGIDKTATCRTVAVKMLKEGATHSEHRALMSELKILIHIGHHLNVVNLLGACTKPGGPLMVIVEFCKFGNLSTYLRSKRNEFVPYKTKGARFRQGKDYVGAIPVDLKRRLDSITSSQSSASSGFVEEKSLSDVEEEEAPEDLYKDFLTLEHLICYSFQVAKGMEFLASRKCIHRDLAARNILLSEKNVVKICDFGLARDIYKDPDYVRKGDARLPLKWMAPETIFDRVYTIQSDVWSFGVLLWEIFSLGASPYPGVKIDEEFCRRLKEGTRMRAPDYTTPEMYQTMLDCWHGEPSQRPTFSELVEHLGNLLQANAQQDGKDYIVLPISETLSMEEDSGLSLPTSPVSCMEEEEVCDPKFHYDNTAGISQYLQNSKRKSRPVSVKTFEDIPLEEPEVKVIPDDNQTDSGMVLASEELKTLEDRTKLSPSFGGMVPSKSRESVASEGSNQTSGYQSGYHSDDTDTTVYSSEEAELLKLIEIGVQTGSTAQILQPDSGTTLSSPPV

The term IC50 denotes the concentration at which inhibition is half-maximal. In the case of `COCCOc1cnc2c(Oc3ccc(NC(=O)c4c(C)nc(C)c(C5=CCCC5)c4O)cc3F)ccnc2c1` [Compound 101, 5-(Cyclopenten-1-yl)-N-[3-fluoro-4-[[7-(2-methoxyethoxy)-1,5-naphthyridin-4-yl]oxy]phenyl]-4-hydroxy-2,6-dimethylpyridine-3-carboxamide], the IC50 at Human Axl and at Human Mer was at most 100 nM in each case.
For the compound `COc1cc2nccc(Oc3ccc(NC(=O)c4c5n(cc(C6=CCOCC6)c4=O)CCOC5)cc3F)c2nc1OC` [Compound G1-7, 7-(3,6-Dihydro-2H-pyran-4-yl)-N-[4-[(6,7-dimethoxy-1,5-naphthyridin-4-yl)oxy]-3-fluorophenyl]-8-oxo-3,4-dihydro-1H-pyrido[2,1-c][1,4]oxazine-9-carboxamide], the IC50 at Human KDR is over 300 nM; on Human Met, at most 100 nM; against Human Mer, at most 100 nM.
